Assay results taken from article PMC8151276, “An Integrated Approach toward NanoBRET Tracers for Analysis of GPCR Ligand Engagement” (Molecules, 2021).

Columns and labels:
Type in all cases: binding
[1] = molecular target: T1, ADRA2B (Homo sapiens, UniProt P18089); test: NanoBRET screen HiBiT-ADRA2B in HEK293; settings: ADRA2B
T1 construct: purchased Promega (in-house HiBiT-GPCR construct library, NanoBRET)
T1 sequence (P18089 1-450): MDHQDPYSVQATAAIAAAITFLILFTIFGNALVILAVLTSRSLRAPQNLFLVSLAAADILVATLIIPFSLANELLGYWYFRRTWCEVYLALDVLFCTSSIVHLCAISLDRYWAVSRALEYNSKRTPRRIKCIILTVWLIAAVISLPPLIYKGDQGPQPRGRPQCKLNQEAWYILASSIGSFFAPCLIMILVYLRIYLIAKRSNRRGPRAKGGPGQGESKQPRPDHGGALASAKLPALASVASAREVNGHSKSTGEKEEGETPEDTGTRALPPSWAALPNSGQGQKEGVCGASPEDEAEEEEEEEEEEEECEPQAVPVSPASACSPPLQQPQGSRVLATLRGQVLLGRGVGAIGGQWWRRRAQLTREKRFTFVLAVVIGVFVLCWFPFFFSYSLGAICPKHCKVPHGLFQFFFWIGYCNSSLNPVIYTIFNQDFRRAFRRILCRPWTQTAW

[2] = molecular target: T2, DRD4 (Homo sapiens, UniProt P21917); test: NanoBRET screen HiBiT-DRD4 in HEK293; settings: DRD4
T2 construct: purchased Promega (in-house HiBiT-GPCR construct library, NanoBRET)
T2 sequence (P21917 1-419): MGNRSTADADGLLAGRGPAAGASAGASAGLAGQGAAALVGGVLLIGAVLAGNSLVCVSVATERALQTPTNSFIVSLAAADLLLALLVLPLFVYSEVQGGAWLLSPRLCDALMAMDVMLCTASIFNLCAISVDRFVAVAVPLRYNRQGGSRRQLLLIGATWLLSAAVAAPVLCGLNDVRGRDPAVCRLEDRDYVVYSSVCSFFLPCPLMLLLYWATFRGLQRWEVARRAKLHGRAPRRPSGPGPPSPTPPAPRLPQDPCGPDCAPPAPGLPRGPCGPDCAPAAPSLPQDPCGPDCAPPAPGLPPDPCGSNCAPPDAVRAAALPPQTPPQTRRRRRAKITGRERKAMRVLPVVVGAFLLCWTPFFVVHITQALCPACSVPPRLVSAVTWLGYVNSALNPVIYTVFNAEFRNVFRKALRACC
Protocol: (§1) Each tracer candidate was screened across the entire library of HiBiT-GPCR constructs using NanoBRET as the detection modality. As depicted in Figure 4A, the specificity of interactions was evaluated through decrease in BRET due to competitive displacement of a bound tracer by excess parental compound. Each tracer was analyzed for binding to each HiBiT-GPCR fusion in the absence and in the presence of competing parental compound. Briefly, HEK293 cells were transfected with HiBiT-GPCR constructs diluted into promoterless DNA to reduce expression and maximize translocation to the cell surface. Each tracer candidate was then screened at concentrations of 1 μM and 0.1 μM across cells expressing these fusions. Cells were treated for 1.5 h with tracer either alone or in the presence of 20 μM competing parental compound (i.e., control). BRET was measured upon addition of purified LgBiT and subsequent complementation with HiBiT genetically fused to a GPCR. The specificity of interactions was assessed through a decrease in BRET signal due to competitive displacement of the bound tracer. To further gauge the robustness of these interactions, the fold response over the control (i.e., BRETtracer/BRETcontrol) was calculated. We chose a 1.5-fold response, which translates to ≥7-fold signal over noise as the minimal threshold required to score an interaction as positive.
(§2) HiBiT-GPCR DNA constructs were diluted in 10 mM Tris pH 8 to a final concentration of 0.01 μg/μL, arrayed in 96-well plates and stored at −20 °C. For transfection, HEK293 cells were suspended in Opti-MEM (without phenol red) supplemented with 2% fetal bovine serum (Seradigm) and 100 units/mL penicillin–streptomycin (Gibco) at a final concentration of 220,000 cells/mL and dispensed into white 96-well plates at 90 μL/well. Subsequent transfections and screens were carried using an Agilent Bravo Automated Liquid Handling Platform. First, the 96-well HiBiT DNA arrays were diluted 25-fold in Opti-MEM (without serum or phenol red) to a final concentration of 0.0004 μg/μL and 20 μL of the diluted DNAs were transferred into new 96-well plates. Next, promoterless carrier DNA (1 μg/μL) was diluted 25-fold (0.04 μg/μL) and then dispensed into the diluted arrays at 20 μL/well. Following brief mixing, Viafect transfection reagent (Promega) diluted 16-fold into Opti-MEM was dispensed into the plates at 40 μL/well. After mixing by pipetting, plates were incubated for 10 min on the pipetting station deck. The DNA-transfection reagent complexes were then added to plates containing cells. To facilitate the screen, 10 μL of DNA-transfection reagent complexes were added in duplicates to the top 4 and bottom 4 rows, resulting in two identical 48-well arrays per plate. Plates with transfected cells were incubated for 18–20 h at 37 °C/5% CO2. A screen of each tracer across the entire library using two different concentrations requires duplicate plates of transfected cells. Depending on the number of tracers being screened, transfections can be scaled up using the same ratios. The next day, for each tracer, four 20× screening solutions in tracer dilution buffer (Promega) were prepared: two duplicates at final concentration of 20 μM and two duplicates at a final concentration of 2 μM. […] The four resulting solutions were diluted 4-fold in Opti-MEM without serum or phenol red to generate 5× solutions (5 µM and 0.5 µM tracer +/− 100 μM competing compound). To screen the library, a BioTek MultiFlo FX liquid dispenser was used to dispense 22.5 µL of tracer solution to the top 4 rows and 22.5 µL tracer + competing compound solution to the 4 bottom rows. Plates were briefly mixed on an orbital shaker and incubated for 1.5 h at room temperature. […] Plates were briefly mixed on an orbital shaker and incubated for 15 min to allow complementation.

[3] = molecular target: T3, HTR7 (Homo sapiens, UniProt P34969); test: NanoBRET screen HiBiT-HTR7 in HEK293; settings: HTR7
T3 construct: purchased Promega (in-house HiBiT-GPCR construct library, NanoBRET)
T3 sequence (P34969 whole entry): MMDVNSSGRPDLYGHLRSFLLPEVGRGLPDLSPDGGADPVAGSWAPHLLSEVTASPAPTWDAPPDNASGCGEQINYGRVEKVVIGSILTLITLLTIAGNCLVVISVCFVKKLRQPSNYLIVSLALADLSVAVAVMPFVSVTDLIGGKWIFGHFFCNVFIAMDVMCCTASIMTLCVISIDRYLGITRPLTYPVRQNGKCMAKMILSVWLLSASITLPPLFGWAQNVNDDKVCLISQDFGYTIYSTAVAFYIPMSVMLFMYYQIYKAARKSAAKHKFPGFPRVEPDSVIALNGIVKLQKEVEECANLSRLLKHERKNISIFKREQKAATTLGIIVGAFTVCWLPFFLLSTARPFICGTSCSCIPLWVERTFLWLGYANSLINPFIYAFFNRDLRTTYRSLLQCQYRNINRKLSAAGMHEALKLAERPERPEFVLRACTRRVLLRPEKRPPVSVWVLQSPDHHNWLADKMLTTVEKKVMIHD
Protocol: as §1, §2

| SMILES | NanoBRET Fold Response ([1]; tracer 0.1μM) | NanoBRET Fold Response ([1]; tracer 1μM) | NanoBRET Fold Response ([2]; tracer 0.1μM) | NanoBRET Fold Response ([2]; tracer 1μM) | NanoBRET Fold Response ([3]; tracer 1μM) | NanoBRET Fold Response ([3]; tracer 0.1μM) |
| --- | --- | --- | --- | --- | --- | --- |
| COc1ccccc1N1CCN(CCCCN2C(=O)c3ccc(CNC(=O)CCOCCOCCOCCOCCNC(=O)CCc4ccc5n4[B-](F)(F)[N+]4=C(c6ccc[nH]6)C=CC4=C5)cc3C2=O)CC1 [NAN-190-2-NB590] | 4.00 | 5.99 | 1.09 | 1.80 | 1.10 |  |
| COc1ccccc1N1CCN(CCCCN2C(=O)c3ccc(CNC(=O)CCOCCNC(=O)c4ccc(CNC(=O)CCc5ccc6n5[B-](F)(F)[N+]5=C(c7ccc[nH]7)C=CC5=C6)cc4)cc3C2=O)CC1 [NAN-190-3-NB590] | 4.24 | 5.21 | 1.23 | 1.92 | 1.05 | 1.21 |
| CC(C)N(CC[C@H](c1ccccc1)c1cc(CCNC(=O)CCOCCOCCOCCOCCNC(=O)CCc2ccc3n2[B-](F)(F)[N+]2=C(c4ccc[nH]4)C=CC2=C3)ccc1O)C(C)C [Tolterodine-2-NB590] | 0.95 | 1.04 | 0.99 | 0.96 | 1.07 | 1.06 |
| CC(C)N(CC[C@H](c1ccccc1)c1cc(CCNC(=O)c2ccc(CNC(=O)CCc3ccc4n3[B-](F)(F)[N+]3=C(c5ccc[nH]5)C=CC3=C4)cc2)ccc1O)C(C)C [Tolterodine-BZ-NB590] | 1.04 | 1.13 | 0.94 | 1.09 | 1.03 | 1.06 |
| CCCn1c(=O)c2[nH]c(-c3ccc(OCC(=O)NCCNC(=O)CCOCCNC(=O)c4ccc(CNC(=O)CCc5ccc6n5[B-](F)(F)[N+]5=C(c7ccc[nH]7)C=CC5=C6)cc4)cc3)nc2n(CCC)c1=O [XAC-3-NB590] | 0.91 | 0.95 | 1.27 | 0.82 | 0.96 | 0.99 |
